# Laboratory results: patent US20090325906A1, “Methods and compositions for therapeutic treatment” (priority 2008, published 2009)
# Where two headings read alike, the source gives them in different places.
# Key:
# rats = format: in vivo
# Protocol: (§1) Animals: 8-9 weeks-old rats are used. General procedures for animal care and housing are in accordance with the National Research Council (NRC) Guide for the Care and Use of Laboratory Animals (1996) and the Animal Welfare Standards incorporated in 9 CFR Part 3, 1991.
# Treatment: Rats are treated i.v with FK506 and i.p. with Quercetin. Rats receive daily administrations containing either 0.5 mg/kg or 2 mg/kg of FK506 approximately one hour after the start of the light cycle. Rats are treated 30 minutes prior to FK506 treatment with quercetin at three different concentrations, 10 mg/kg, 25 mg/kg or 200 mg/kg. Subsets of 5 rats per group are used for blood sampling at each time point. Blood is collected for glucose measurement on days 0, 5, 9, and 14.
# mouse spleen cells [1] = experiment: In vitro LPS assay on spleen cells; format: cell-based; details: high ([…]10^6 cells/well) and low (8×10^5 cells/well) cell concentration
# murine or human T cells = details: disrupting calcium signaling events that lead to lymphokine production; cited from earlier work
# islet = details: 0.01 μmol/liter, after 7-d incubation; cited from earlier work
# [2] = system: LEW responder splenocytes (lymphocyte proliferation); experiment: Mixed lymphocyte reaction (MLR) with spleen cells of treated Lewis rats; format: cell-based, rat
# Protocol: as §1, with “weeks-old Lewis and Brown Norway male” for “weeks-old”, “obtained from Charles River Laboratories.” for “used.”
# (§2) Treatment: Lewis rats are treated with different single doses of LNS 0694 i.p. 30 minutes prior to single i.v. injections of tacrolimus at a concentration of 1 mg/kg as described in the table below.
# (§3) Spleens are collected at 4 hr after administration of FK506 for use in the in vitro mixed lymphocyte reaction (MLR) and Con A assays. In addition to treated Lewis rats, spleens are collected from 5 Brown Norway rats (not treated) which are used for the in vitro assay.
# Mixed lymphocyte reactions: A single cell suspension of the spleen of each rat on test (LEW, responder) is prepared with a Dounce homogenizer and wash-medium. The cell suspension is depleted of red blood cells (treatment with NH4CL/Tris buffer) and washed twice with wash medium before resuspending in complete medium (CM; RPMI 1640 with 5% heat-inactivated (30 minutes at 56° C.) normal rat serum (from Lewis rats), 2 mM GlutaMAX, 100 U/ml penicillin and 100 μg/ml streptomycin mixture, and 55 μM 2-mercaptoethanol). A single cell suspension of splenocytes from five Brown Norway rats (BN, stimulators) is prepared with the same method. The BN splenocytes are pooled and irradiated with 1,500-2,000 rad (cesium source) before use.
# Varying numbers of responder cells are mixed with a constant number of stimulators (105) in 96-well, U-bottom cell culture plates to give a final responder:stimulator (R:S) ratio of 10:1, 5:1, 1:1 and 0.5:1 in 200 μl CM. Control wells for each cell suspension contained 10^5 responders alone in medium and 105 pooled, irradiated stimulators alone in medium (separate wells). For a positive proliferative response, each responder (10^5) is treated with 2.5 μg/ml Con A. […]
# The results of the MLR assays [thymidine incorporation as counts per minute (CPM)] are expressed as mean±SD.
# [3] = system: liver transplant patients; details: two liver transplant trials; 514 patients tacrolimus and steroids, 515 patients CBIR; cited from earlier work
# [4] = system: heart transplant patients; details: target range 5-15 ng/mL, tacrolimus treatment arm, European study; cited from earlier work
# [5] = system: renal transplant recipients; details: cited from earlier work
# mouse spleen cells [6] = experiment: In vitro Con A assay on spleen cells; format: cell-based; details: for response of spleen cells to Con A (proliferation): high ([…]10^6 cells/well) and low (8×10^5 cells/well) cell concentration
# Protocol: as §1, with “weeks-old Lewis and Brown Norway male” for “weeks-old”, “are obtained from Charles River Laboratories.” for “are used.”, “housing is” for “housing are”
# Spleens are collected for use in in vitro Con A and LPS assays.
# Spleen cells are treated with Con A in the presence of vehicle, tacrolimus, quercetin or two different concentrations of tacrolimus (10^−8.2 and 10^−8.5 M) and increasing doses of quercetin at a high cell concentration (FIG. 13) or at a low cell concentration (FIG. 14). […] There is no significance difference between the effect of quercetin on tacrolimus induced cell suppression in vitro at the different concentrations used for quercetin. The same results are observed in cultures with low cell concentration (FIG. 14).
# [7] = system: LEW responder splenocytes activated with Con A; experiment: Con A stimulated proliferation of spleen cells of treated Lewis rats; format: cell-based, rat; details: LNS 0694 i.p. before FK 506 1 mg/kg i.v.
# Protocol: as §2, §3
# Varying numbers of responder cells are mixed with a constant number of stimulators (105) in 96-well, U-bottom cell culture plates to give a final responder:stimulator (R:S) ratio of 10:1, 5:1, 1:1 and 0.5:1 in 200 μl CM. Control wells for each cell suspension contained 10^5 responders alone in medium and 105 pooled, irradiated stimulators alone in medium (separate wells). For a positive proliferative response, each responder (10^5) is treated with 2.5 μg/ml Con A.
# Cultures are incubated at 37±° 1 C. for 72±2 hours in 5±1% CO2 humidified air. Each well is pulsed with 1 μCi tritiated thymidine for 18±2 hours before automatic harvesting and analysis in a liquid scintillation counter.
# [8] = Pharmacokinetics of FK 506 in male Lewis rats, whole blood drug levels; format: in vivo; details: FK 506 1 mg/kg i.v. with i.p. LNS 0694 at different doses
# Protocol: as §1, with “weeks-old Lewis and Brown Norway male” for “weeks-old”, “are obtained from Charles River Laboratories.” for “are used.”, “housing is” for “housing are”
# Treatment: Lewis rats are treated as described in example 3. Subsets of 3 Lewis rats per group are used for blood sampling at each time point (Groups 2-5) as described in the table below.
# Plasma Blood Sample Collection: Whole blood is collected from the retro-orbital sinus under 60:40 CO2:O2 anesthesia using EDTA as the anticoagulant. Sample collection is performed at 9 time points: 5, 15, and 30 min and 1, 2, 4, 6, 8, & 24 hr after administration of FK 506. Three samples are collected from each rat per group (Groups 2-5). The first 2 samples are collected under anesthesia, after which the animal regains consciousness and is retained until the next collection interval. […]
# Drug levels are determined in collected whole blood samples using a bioanalytical method developed to detect parent drug levels.
# Results: The pharmacokinetics parameters of FK 506 are determined in male Lewis rats after 1 mg/kg i.v. administration alone or in combination with i.p, administration of different doses of LNS 0694 (See FIG. 15).
# [9] = Solubility of quercetin with sulfobutylether-7-β-cyclodextrin and meglumine; format: physicochemical; details: Captisol 30% w/v, Meglumine 44 mM, room temperature, about 10 minutes, excess solids removed
# Protocol: Sulfobutylether-7-β-cyclodextrin (Captisol™) is dissolved in water to form a solution at 30% w/v. To the Captisol solution is added Meglumine at a concentration of 44 mM and […] at a concentration of about 20 mg/ml. The solution is stirred at room temperature for about 10 minutes. The solution is separated from any excess solids (e.g. by filtration). The concentration of quercetin in the solution is about 9.2 mg/mL.
# [10] = cited from earlier work
# [11] = Sulfobutylether-7-β-cyclodextrin quercetin aqueous composition: concentration and storage stability; format: physicochemical; details: 10 mg/ml in water with sulfobutylether-7-β-cyclodextrin
# Protocol: The flask is placed in an ice bath. When all of the Captisol is dissolved, 1.24 g of quercetin (Micron Technologies) (equivalent to about 1 g of anhydrous quercetin) is added with stirring. Into the flask, 12 ml of 1 N sodium hydroxide is added over about 5 to 10 minutes. […] Into the flask is then added 10.5 ml of hydrochloric acid over 5 to 10 minutes at a slow enough rate to avoid precipitation. During the addition of the sodium hydroxide and the hydrochloric acid, the temperature is maintained at less than 20° C. DI water is then added to give total volume of 100 ml. This procedure results in a sulfobutylether-7-β-cyclodextrin-quercetin aqueous composition at a concentration of 10 mg/ml (33 mM) in quercetin at a pH of about 7.8.
# [12] = quercetin or a quercetin derivative; cited from earlier work
structure (smiles),measurement,setting,value
"C=CC[C@@H]1/C=C(\C)C[C@H](C)C[C@H](OC)[C@H]2O[C@@](O)(C(=O)C(=O)N3CCCC[C@H]3C(=O)O[C@H](/C(C)=C/[C@@H]3CC[C@@H](O)[C@H](OC)C3)[C@H](C)[C@@H](O)CC1=O)[C@H](C)C[C@@H]2OC (relative stereo) [tacrolimus, [3S-[3R[E(1S*,3S*,4S*)], 4S*,5R*,8S*,9E,12R*,14R*,15S*,16R*,18S*,19S*,26aR*]]-,6,8,11,12,13,14,15,16,17,18,19,24,25,26,26a-hexadecahydro-5,19-dihydroxy-3-[2-(4-hydroxy-3-methoxycyclohexyl)-1-methylethenyl]-14,16-dimethoxy-4,10,12,18-tetramethyl-8-(2-propenyl)-15,19-epoxy-3H-pyrido[2,1-c][1,4]oxaazacyclotricosine-1,7,20,21(4H,23H)-tetrone, monohydrate]",percent change of glucose blood level,"rats; rat, in vivo, 0.5 mg/kg",greater increase
same,response of spleen cells to LPS (proliferation),mouse spleen cells [1],inhibits LPS-induced proliferation in a dose dependent manner
same,potency relative to CsA,murine or human T cells,50-100 fold
same,"glucose-stimulated insulin secretion, of the control value",islet,32±5%
same,lymphocyte proliferation in MLR (thymidine incorporation),"[2]; FK 506 1 mg/kg i.v., spleens collected at 4 hr",inhibited
same,inhibitory effect on MLR by R:S ratio,"[2]; FK 506 1 mg/kg i.v., R:S ratios 0.5:1, 1:1, 5:1",stronger inhibitory effect at lower R:S ratios
same,proportion of patients reporting more than one adverse event,[3],99.8%
same,patients with trough concentrations within the pre-defined target range,[4],74-86%
same,incidence of posttransplant diabetes mellitus (PTDM),[5]; Japan,31.4%
same,incidence of posttransplant diabetes mellitus (PTDM),[5]; western countries,10-30%
same,response of spleen cells to Con A (proliferation),mouse spleen cells [6],inhibits Con A-induced proliferation in a dose dependent manner
O=c1c(O)c(-c2ccc(O)c(O)c2)oc2cc(O)cc(O)c12 [LNS 0694],FK 506 inhibitory effect on lymphocyte proliferation after Con A,[7],increases FK 506 inhibitory effect
same,FK 506 inhibitory effect on lymphocyte proliferation in MLR,"[2]; LNS 0694 50, 150, 300 mg/kg i.p. 30 minutes before FK 506 1 mg/kg i.v.",increases FK 506 inhibitory effect in a dose-dependent manner
same,peripheral bioavailability of FK506,[8],increases the peripheral bioavailability of FK506 in a dose dependent manner
O=c1c(O)c(-c2ccc(O)c(O)c2)oc2cc(O)cc(O)c12 [quercetin],concentration of quercetin in the solution,[9],about 9.2 mg/mL
same,FK506 induced hyperglycemia,"rats; FK506 0.5 mg/kg i.v. daily, quercetin i.p. 30 minutes before, FIG. 2",decreases
same,increase of glucose blood levels by FK506,"rats; FK506 0.5 mg/kg, quercetin 10, 25 and 200 mg/kg",reduced
same,increase of blood glucose (percent change),"rats; FK506 2 mg/kg + quercetin 10 mg/kg, day 9",60%
same,increase of blood glucose (percent change),"rats; FK506 2 mg/kg + quercetin 25 mg/kg, day 9",90%
same,percent change of blood glucose,"rats; FK506 2 mg/kg + quercetin 200 mg/kg, day 9",reduced to the levels similar to rats treated with vehicle alone
same,FK506 induced hyperglycemia,"rats; FK506 2 mg/kg i.v. daily, quercetin i.p. 30 minutes before, FIG. 1",decreases
same,increase in glucose blood levels by FK506,"rats; FK506 2 mg/kg, day 5, quercetin 10, 25 and 200 mg/kg",reduced
same,increase of glucose blood levels by FK506,"rats; FK506 2 mg/kg, day 9, quercetin 10, 25 and 200 mg/kg",reduced
same,FK506 induced hyperglycemia,"rats; conclusion of Example 4, both FK506 doses",decreases
same,response of spleen cells to LPS (proliferation),mouse spleen cells [1],no significant effect
same,stability in solution,[10]; above pH 5,degradation
same,stability in solution,[10]; below pH 3,stable
same,stability of solution to precipitation,[11],stable for more than two weeks without precipitation
same,serum half-life,[12],19 to 25 h
same,tacrolimus induced cell suppression in vitro,"mouse spleen cells [6]; Con A, tacrolimus 10^−8.2 and 10^−8.5 M with increasing doses of quercetin, high cell concentration",does not impair
same,effect of tacrolimus on cells,mouse spleen cells [6]; conclusion of Example 6,does not alter
same,response of spleen cells to Con A (proliferation),mouse spleen cells [6],no significant effect
